Test results published in ChEMBL document CHEMBL5149990, “New Protocol-Guided Exploitation of a Lysosomal Sulfatase Inhibitor to Suppress Cell Growth in Glioblastoma Multiforme” (J Med Chem, 2021).
Activity calls are given as the source filed them. The calls are words filed in the database; no cut-off is given here.

How the values were obtained:
[1] = Drug localization in lysosome of human T98G cells by Lyso-Tracker Red based confocal laser scanning microscopy; assay type: ADME, cell-based
Homo sapiens [2] = species on record: Homo sapiens; assay: Binding affinity to lysosome sulfatase (unknown origin) assessed as Vmax; assay type: subcellular
Homo sapiens [3] = species on record: Homo sapiens; assay: Binding affinity to lysosome sulfatase (unknown origin) assessed as Km; assay type: subcellular
Homo sapiens [4] = species on record: Homo sapiens; assay: Binding affinity to sulfatase in human liver S9 fraction; assay type: subcellular
T98G [5] = assay: Cytotoxicity against human T98G cells assessed as reduction in cell viability incubated for 4 hrs by MTT assay; assay type: toxicity, cell-based
T98G [6] = assay: Binding affinity to sulfatase in human T98G cells assessed as increase in fluorescence intensity at 40 uM by confocal fluorescence microscopic analysis; assay type: cell-based
[7] = Inhibition of lysosome sulfatase (unknown origin) assessed as reduction in fluorescence intensity using 2-(2-Morpholinoethyl)-6-(((2S,3R,4S,5S,6R)-3,4,5-trihydroxy-6-(hydroxymethyl)tetrahydro-2H-pyran-2-yl)oxy)-1H-benzo[de]-isoquinoline-1,3(2H)-dione as substrate incubated for 60 mins by fluorescence based analysis; assay type: subcellular, Homo sapiens
T98G [8] = assay: Binding affinity to sulfatase in human T98G cells assessed as reduction in fluorescence intensity at 125 uM in presence of 2-(2-Morpholinoethyl)-6-(((2S,3R,4S,5S,6R)-3,4,5-trihydroxy-6-(hydroxymethyl)tetrahydro-2H-pyran-2-yl)oxy)-1H-benzo[de]-isoquinoline-1,3(2H)-dione by confocal fluorescence microscopic analysis; assay type: cell-based
T98G [9] = assay: Cytotoxicity against human T98G cells assessed as reduction in cell viability at 3.5 to 350 uM incubated for 48 hrs by MTT assay relative to control; assay type: toxicity, cell-based; settings: dose 3.5-350 µM

O=C1c2cccc3c(O[C@@H]4O[C@H](CO)[C@@H](O)[C@H](O)[C@H]4O)ccc(c23)C(=O)N1CCN1CCOCC1
Drug uptake [1]: Active | Vmax (Homo sapiens [2]): 70.9 nmol/min/mg | Km (Homo sapiens [3]): 21.6 µM | Activity (Homo sapiens [4]): Active | Activity (T98G [5]): Non-Toxic | Activity (T98G [6]): Active

CC1(C)[C@H](C(=O)O)N2C(=O)C[C@H]2S1(=O)=O [SULBACTAM]
IC50 [7]: 3.5 µM | Activity (T98G [8]): Active | Activity (T98G [9]): 34%
